Columns and labels:
[1] = Kinetic Turbidimetric Aqueous Solubility at room temperature for 5 min; type: physicochemical; details: PBS buffer, kinetic from dmso stock, 2% DMSO
Procedure: Kinetic Turbidimetric Aqueous Solubility at room temperature for 5 min. Test compound was diluted in PBS buffer to give a range of concentrations (typically 0.4, 2, 4, 20, 40, 100, and 200 μM, final DMSO concentration 2%) and incubated at room temperature for 5 min. Absorbance was measured at a wavelength of 620 nm and the solubility was estimated from the concentration of test compound that produces an increase in absorbance above the vehicle control (i.e., […]). Data was analyzed by fitting a four parameter sigmoidal function to the measured and normalized absorbances and AUC calculation providing access to Log S (decadic logarithm of the solubility).

[2] = target: PqsR (Pseudomonas aeruginosa, UniProt Q9I4X0); assay: E. coli based β-galactosidase reporter gene assay (PqsR inverse agonistic activity); type: cell-based; set-up: expressed in transfected cells; host or cells: Escherichia coli DH5α
Sequence of PqsR (Q9I4X0 whole entry): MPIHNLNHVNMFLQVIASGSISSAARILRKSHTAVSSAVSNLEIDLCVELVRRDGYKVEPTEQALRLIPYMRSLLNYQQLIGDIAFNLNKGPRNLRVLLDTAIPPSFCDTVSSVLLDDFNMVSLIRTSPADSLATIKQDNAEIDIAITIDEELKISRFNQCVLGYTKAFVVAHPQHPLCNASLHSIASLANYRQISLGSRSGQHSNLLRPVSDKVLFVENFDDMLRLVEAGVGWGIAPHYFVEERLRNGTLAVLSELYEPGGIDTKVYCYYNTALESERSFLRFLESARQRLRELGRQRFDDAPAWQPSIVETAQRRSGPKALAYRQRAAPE
Procedure: Inhibition of pqsR-dependent gene expression of test compounds was determined in an E. coli based β-galactosidase reporter gene assay.[19] Escherichia coli DH5α was transfected with pEAL08-2 plasmid encoding pqsR under control of promoter tac and β-galactosidase reporter gene lacZ under control of promoter pqsA. Antagonistic effects of compounds were evaluated in the presence of/in competition to 50 nM PQS. A positive control was used to ensure the reliability of individual assays. First, PQS was diluted in methanol and added to the wells of a glass coated 96-deep-well plate, and the solvent was evaporated. Then, compounds were added in 5 μL DMSO to final concentrations of 0.001-10 μM. Overnight cultures of E. coli DH5a×pEAL08-2 were diluted 1:100 in LB medium with ampicillin (50 μg/ml) and incubated at 37° C. with shaking until it reached an OD600 of 0.2. Finally, 995 μL of culture was added to each well and the p-galactosidase activity was determined by ortho-nitrophenyl-p-galactoside conversion in permeabilized cells after a 2.5 h incubation period (37° C., 180 rpm). OD600, OD420, and OD550 were measured using POLARstar Omega (BMG Labtech, Ortenberg, Germany), and the activity was expressed as ratio of the slope of β-galactosidase activity between basal control (no PQS) and solvent control. IC50 values of antagonists were determined by variation of the concentration of the test compounds.

[3] = test system: P. aeruginosa pyocyanin production; assay: Pyocyanin assay; type: cell-based, P. aeruginosa PA14; details: Pseudomonas aeruginosa, PA14, 16 h, read-out: IC50-value towards pyocyanin production, PA14 in PPGAS medium, 16 h
Procedure: Inhibition of P. aeruginosa pyocyanin production by compounds was determined photometrically as described before.[20] In short, an overnight culture of PA14 in PPGAS medium was washed, diluted in medium to a start OD600 of 0.02, and incubated for 16 h (37° C., 200 rpm, relative humidity 75%) in the presence of test compounds. Then, cultures were extracted with chloroform and re-extracted with 0.2 M HCl. Protonated red colored pyocyanin was determined by measuring OD520 and normalizing to OD600.

SMILES	solubility at 5 min [1]	IC50 [2]	IC50 [3]
Nc1cc(SCc2nc3cc(Cl)c(Cl)cc3[nH]2)nc(C(F)(F)F)n1 [Compound 117, 6-(((5,6-Dichloro-1H-benzo[d]imidazol-2-yl)methyl)thio)-2-(trifluoromethyl)pyrimidin-4-amine]	> 50 µM	51 to 250 nM	
FC(F)(F)c1cc(NCc2cn(-c3ccc(Oc4cccnc4)c(Cl)c3)nn2)ccn1 [Compound 031, N-((1-(3-Chloro-4-(pyridin-3-yloxy)phenyl)-1H-1,2,3-triazol-4-yl)methyl)-2-(trifluoromethyl)pyridin-4-amine]	> 25 µM		
COc1ncc(-c2nc(CNc3ccnc(C(F)(F)F)c3)cs2)cc1Cl [Compound 084, N-((2-(5-Chloro-6-methoxypyridin-3-yl)thiazol-4-yl)methyl)-2-(trifluoromethyl)pyridin-4-amine]	> 25 µM	51 to 250 nM	
COc1ccc(-c2ncc(CNc3cc(N)nc(C(F)(F)F)n3)s2)cc1Cl [Compound 070, N^4-((2-(3-chloro-4-methoxyphenyl)thiazol-5-yl)methyl)-2-(trifluoromethyl)-pyrimidine-4,6-diamine]	> 25 µM		
FC(F)(F)c1cc(NCc2cn(-c3ccc(-n4ccc5cccnc54)cc3)nn2)ccn1 [Compound 044, N-((1-(4-(1H-pyrrolo[2,3-b]pyridin-1-yl)phenyl)-1H-1,2,3-triazol-4-yl)methyl)-2-(trifluoromethyl)pyridin-4-amine]	> 10 µM	≤ 50 nM	
FC(F)(F)c1cc(SCc2ccc(-c3ccc(Cl)cc3)cn2)ccn1 [Compound 111, 4-(((5-(4-Chlorophenyl)pyridin-2-yl)methyl)thio)-2-(trifluoromethyl)pyridine]	> 10 µM		
FC(F)(F)c1cc(NCc2cn(-c3ccc(OC4COC4)c(Cl)c3)nn2)ccn1 [Compound 152, N-((1-(3-chloro-4-(oxetan-3-yloxy)phenyl)-1H-1,2,3-triazol-4-yl)methyl)-2-(trifluoromethyl)pyridin-4-amine]		≤ 50 nM	1000 to 5000 nM
CC(C)Oc1ccc(-n2cc(CNc3ccnc(C(F)(F)F)c3)nn2)cc1 [Compound 035, N-((1-(4-Isopropoxyphenyl)-1H-1,2,3-triazol-4-yl)methyl)-2-(trifluoromethyl)pyridin-4-amine]	≥ 100 µM	≤ 50 nM	
CC(C)Oc1ccc(-c2ncc(CNc3ccnc(C#N)c3)s2)cc1Cl [Compound 091, 4-(((2-(3-Chloro-4-isopropoxyphenyl)thiazol-5-yl)methyl)amino)picolinonitrile]		≤ 50 nM	≤ 250 nM
FC(F)(F)c1cc(NCc2nc(-c3ccc(Oc4ccccc4)cc3)cs2)ccn1 [Compound 079, N-((4-(4-Phenoxyphenyl)thiazol-2-yl)methyl)-2-(trifluoromethyl)pyridin-4-amine]	> 25 µM	251 to 1000 nM	
N#Cc1cc(SCc2nc3cc(Oc4ccccc4)ccc3[nH]2)ccn1 [Compound 175, 4-(((5-phenoxy-1H-benzo[d]imidazol-2-yl)methyl)thio)picolinonitrile]	> 25 µM		251 to 1000 nM
COc1ccc(-n2cc(CNc3ccnc(C(F)(F)F)c3)nn2)cc1 [Compound 006, N-((1-(4-Methoxyphenyl)-1H-1,2,3-triazol-4-yl)methyl)-2-(trifluoromethyl)pyridin-4-amine]		51 to 250 nM	1000 to 5000 nM
FC(F)(F)c1cc(SCc2cn(-c3cccc(Cl)c3)nn2)ccn1 [Compound 056, 4-(((1-(3-Chlorophenyl)-1H-1,2,3-triazol-4-yl)methyl)thio)-2-(trifluoromethyl)pyridine]	> 25 µM	251 to 1000 nM	
Nc1cc(SCc2nc3cc(Oc4cccnc4)ccc3[nH]2)nc(C(F)(F)F)n1 [Compound 174, 6-(((5-(pyridin-3-yloxy)-1H-benzo[d]imidazol-2-yl)methyl)thio)-2-(trifluoromethyl)pyrimidin-4-amine]	≥ 100 µM		251 to 1000 nM
FC(F)(F)Oc1ccc(-n2cc(CSc3ccnc(C(F)(F)F)c3)nn2)cc1Cl [Compound 063, 4-(((1-(3-chloro-4-(trifluoromethoxy)phenyl)-1H-1,2,3-triazol-4-yl)methyl)thio)-2-(trifluoromethyl)pyridine]		51 to 250 nM	1000 to 5000 nM
Fc1ccc(Oc2ccc3[nH]c(CSc4ccnc(C(F)(F)F)c4)nc3c2)cc1 [Compound 173, 5-(4-fluorophenoxy)-2-(((2-(trifluoromethyl)pyridin-4-yl)thio)methyl)-1H-benzo[d]imidazole]	> 25 µM		251 to 1000 nM
Fc1ncccc1Oc1ccc(-n2cc(CNc3cc(Cl)nc(C(F)(F)F)c3)nn2)cc1 [Compound 142, 2-chloro-N-((1-(4-((2-fluoropyridin-3-yl)oxy)phenyl)-1H-1,2,3-triazol-4-yl)methyl)-6-(trifluoromethyl)pyridin-4-amine]		≤ 50 nM	≤ 250 nM
FC(F)(F)c1cc(OCc2nc3cc(Cl)c(Cl)cc3[nH]2)ccn1 [Compound 120, 5,6-Dichloro-2-(((2-(trifluoromethyl)pyridin-4-yl)oxy)methyl)-1H-benzo[d]imidazole]	> 50 µM	251 to 1000 nM	
CC(C)Oc1ccc(-n2cc(CNc3cc(Cl)nc(Cl)c3)nn2)cc1Cl [Compound 158, 2,6-dichloro-N-((1-(3-chloro-4-isopropoxyphenyl)-1H-1,2,3-triazol-4-yl)methyl)pyridin-4-amine]		≤ 50 nM	≤ 250 nM
COc1ncc(-c2ccc(CNc3ccnc(C(F)(F)F)c3)nc2)cc1Cl [Compound 101, N-((5′-Chloro-6′-methoxy-[3,3′-bipyridin]-6-yl)methyl)-2-(trifluoromethyl)pyridin-4-amine]	> 25 µM	51 to 250 nM	
FC(F)(F)c1cc(SCc2nc3cc(Oc4ccccc4)ccc3[nH]2)cc(Cl)n1 [Compound 184, 2-(((2-chloro-6-(trifluoromethyl)pyridin-4-yl)thio)methyl)-5-phenoxy-1H-benzo[d]imidazole]		≤ 50 nM	≤ 250 nM
CSc1ccc(-n2cc(CNc3ccnc(C(F)(F)F)c3)nn2)cc1Cl [Compound 038, N-((1-(3-Chloro-4-(methylthio)phenyl)-1H-1,2,3-triazol-4-yl)methyl)-2-(trifluoromethyl)pyridin-4-amine]	> 25 µM	≤ 50 nM	
FC(F)(F)c1cc(NCc2cn(-c3ccc(Oc4cccnc4)cc3)nn2)ccn1 [Compound 033, N-((1-(4-(Pyridin-3-yloxy)phenyl)-1H-1,2,3-triazol-4-yl)methyl)-2-(trifluoromethyl)pyridin-4-amine]	> 25 µM	≤ 50 nM	
CC(C)Oc1ccc(-n2cc(CNc3cc(C#N)nc(C(F)(F)F)c3)nn2)cc1Cl [Compound 156, 4-(((1-(3-chloro-4-isopropoxyphenyl)-1H-1,2,3-triazol-4-yl)methyl)amino)-6-(trifluoromethyl)picolinonitrile]		≤ 50 nM	251 to 1000 nM
FC(F)(F)c1cc(NCc2cn(-c3ccc(-n4ccc5ccncc54)cc3)nn2)ccn1 [Compound 043, N-((1-(4-(1H-pyrrolo[2,3-c]pyridin-1-yl)phenyl)-1H-1,2,3-triazol-4-yl)methyl)-2-(trifluoromethyl)pyridin-4-amine]	> 25 µM	≤ 50 nM	
FC(F)(F)c1cc(NCc2cn(-c3ccc(Oc4ccccc4)c(Cl)c3)nn2)ccn1 [Compound 053, N-((1-(3-Chloro-4-phenoxyphenyl)-1H-1,2,3-triazol-4-yl)methyl)-2-(trifluoromethyl)pyridin-4-amine]		≤ 50 nM	≤ 250 nM
FC(F)(F)c1cc(NCc2cn(-c3ccc(Cl)c(Cl)c3)nn2)ccn1 [Compound 005, N-((1-(3,4-Dichlorophenyl)-1H-1,2,3-triazol-4-yl)methyl)-2-(trifluoromethyl)pyridin-4-amine]		≤ 50 nM	251 to 1000 nM
Clc1cc(NCc2cn(-c3ccc(Oc4ccccc4)cc3)nn2)ccn1 [Compound 049, 2-Chloro-N-((1-(4-phenoxyphenyl)-1H-1,2,3-triazol-4-yl)methyl)pyridin-4-amine]		≤ 50 nM	251 to 1000 nM
